Data set [1] deals with liver. Nature of the data set: In vivo liver uptake, fluorescence microscopy of rat liver slices. Further details: species or system male Wistar rats. To be noted: single i.v. 10, 20, 40 µg/100 g bw, 3.5 hours. The protocol:
In vivo studies were performed in male Wistar rats housed under a 12 hours light-dark cycle with free access to food and water. The animals were allocated in five groups, each consisting of three rats. Three animal groups received a single i.v. administration of NBD-gH625 at a concentration of 10 µg, 20 µg, and 40 µg/100 g bw, respectively. Control group received vehicle while another group received gH-625 (40 µg/100 g bw). Both NBD-gH625 and gH625 were dissolved in phosphate-buffered saline. After 3.5 hours from the i.v. administration, the animals were anesthetized with Zoletil® (40 mg/100 g) and euthanized by decapitation. This study was carried out in strict accordance with recommendations in the European Guide for the Care and Use of Laboratory Animals. […]
(§1) To evaluate the effect of concentration on the systemic delivery of NBD-gH625, a fluorescence microscopy analysis was performed as previously reported.
Briefly, livers and brains were isolated and fixed for 24 hours in Bouin’s fixative (71% picric acid, 5% acetic acid, 24% formaldehyde) and embedded in paraffin wax (Carlo Erba, Milan, Italy). […] All images were then analysed using Fiji 1.50 software to determine the mean fluorescence and the integrated density, defined as the product of the mean fluorescence per the region of interest (μm^2)[32]. The percentage of delivered vs administered NBD-gH625 was calculated.

The subject of data set [2] is brain / BBB. Nature of the data set: In vivo brain uptake, fluorescence microscopy of rat brain. Further details: species or system male Wistar rats. Here is the method:
In vivo studies were performed in male Wistar rats housed under a 12 hours light-dark cycle with free access to food and water. The animals were allocated in five groups, each consisting of three rats. Three animal groups received a single i.v. administration of NBD-gH625 at a concentration of 10 µg, 20 µg, and 40 µg/100 g bw, respectively. Control group received vehicle while another group received gH-625 (40 µg/100 g bw). Both NBD-gH625 and gH625 were dissolved in phosphate-buffered saline. After 3.5 hours from the i.v. administration, the animals were anesthetized with Zoletil® (40 mg/100 g) and euthanized by decapitation. This study was carried out in strict accordance with recommendations in the European Guide for the Care and Use of Laboratory Animals. Every effort was made to minimize animal pain and suffering. All animal protocols were approved by the Committee on the Ethics of Animal Experiments of the University of Napoli Federico II (Italy) and the Italian Minister of Health. (Protocol number 2012/000180).
The ex-vivo fluorescence microscopy analysis was performed to evaluate the distribution of NBD-gH625 on both sides of the BBB. In order to evaluate if there is a linear relationship between slides fluorescence integrated density and the amount of the peptide, a calibration curve was obtained. In particular, increasing amounts of NBD-gH625 (0–30 µM) were spotted on microscope slides and images at 515 nm were acquired (See the Results section) and analysed as described below. Brains were removed from animals, sectioned sagittally in thick slices, washed in PBS, mounted on coverslips, stained with DAPI (4′–6 Diamidino-2-Phenylindole, Dilactate) (Invitrogen, Carlsbad, CA, USA) and analysed under Axioskop fluorescence microscope (Zeiss). Images, at least 10 field of view (800 × 700 μm each) for each experimental class, were acquired using an AxioCam MRc5 (Zeiss) with DAPI filter (λex 350 nm; λem 461 nm) and a fluorescein isothiocyanate filter (λex 488 nm; λem 515 nm).
To evaluate the distribution of NBD-gH625 on both sides of the BBB, we estimated the fluorescence inside the blood vessels (without discriminating between the amount present in the blood and that present in the endothelial cells) and outside the blood vessels in 10 images for each experimental class. In detail, to assess the NBD-gH625 that reached without crossing the BBB, we selected blood vessels as the region of interest (ROI) (inbound) and evaluated the fluorescence intensity; then, on the non-zero thresholded images, an inversion of selected ROI was carried out to obtain the complementary ROI to calculate the amounts of NBD-gH625 which crossed the BBB (outbound).
The morphology of blood vessels was easily identified and outlined; the images were calibrated by ImageJ Rodbard function; integrated density values were calculated within the outlines exclusively, to be considered as inside fluorescence. Then, the thresholded and outlined images, to exclude both blood vessels and background values, were used to calculate the integrated density as outside fluorescence.
as §1
Briefly, livers and brains were isolated and fixed for 24 hours in Bouin’s fixative (71% picric acid, 5% acetic acid, 24% formaldehyde) and embedded in paraffin wax (Carlo Erba, Milan, Italy). Tissue sections (10 μm of thickness) were incubated in 0.1% Sudan Black B dissolved in 70% ethanol for 20 minutes to reduce the tissues autofluorescence. The excess of Sudan Black B was removed by washing with Tris-buffered saline containing 0.02% Tween 20[30],[31]. Sections were stained with DAPI to counterstain nuclei, then mounted with a coverslip in glycerol/phosphate-buffered saline (1:1) and acquired using an AxioCam MRc5 with DAPI filter (λex 350 nm; λem 461 nm) and a fluorescein isothiocyanate filter (λex 488 nm; λem 515 nm). […]

[3] abbreviates: single i.v., 3.5 hours after administration, ex vivo brain slices, 515 nm.

Starred links: 1 amine or outer side, 2 acyl side, 3 side chain; linkers in the order of their positions; H or OH if unused. Non-standard residues stand in square brackets, D forms with d. Residues, ends and D or L forms follow the SMILES beside them. X1 = O=C([C@H](Cc1c[nH]cn1)N(c1ccc([N+](=O)[O-])c2nonc12)[*:1])[*:2]

`CC[C@H](C)[C@H](NC(=O)[C@H](CC(C)C)NC(=O)[C@H](C)NC(=O)[C@H](CC(N)=O)NC(=O)[C@H](Cc1ccc(O)cc1)NC(=O)[C@H](Cc1c[nH]cn1)NC(=O)[C@H](C)NC(=O)[C@H](Cc1c[nH]c2ccccc12)NC(=O)[C@H](CCCNC(=N)N)NC(=O)[C@@H](NC(=O)[C@H](CC(C)C)NC(=O)[C@@H](NC(=O)[C@H](CO)NC(=O)[C@H](C)NC(=O)[C@H](CC(C)C)NC(=O)CNC(=O)[C@H](Cc1c[nH]cn1)Nc1ccc([N+](=O)[O-])c2nonc12)[C@@H](C)O)[C@@H](C)O)C(=O)N[C@@H](CCCNC(=N)N)C(=O)N[C@@H](C)C(=O)N[C@@H](Cc1ccccc1)C(N)=O` [NBD-gH625] (H-[X1]GLASTLTRWAHYNALIRAF-NH2): in data set [1], the “Integrated density of fluorescence on liver slices, dependence on dose” value is “lowest dose of NBD-gH625 has higher effect”. Also, the “Percentage of peptide delivered in liver vs administered, dependence on dose” value in data set [1] (integrated density calibrated with known amounts) was “lower doses produced higher percentages of delivered peptide”. For the same compound, the “Integrated density of fluorescence on brain slices” value in data set [2] (single i.v. 40 µg/100 g bw, 3.5 hours) is listed as “comparable to the control”. Besides, the “Integrated density of fluorescence on brain slices, dependence on dose” value in data set [2] (single i.v. 10, 20, 40 µg/100 g bw, 3.5 hours) is “lower peptide concentrations are able to improve the reaching of the brain more compared to higher concentrations”. Moreover, in data set [2] (single i.v. 10, 20, 40 µg/100 g bw, 3.5 hours, integrated density calibrated with known amounts), the “Percentage of peptide delivered in brain vs administered, dependence on dose” value is listed as “lower doses produced higher percentages of delivered peptide”. In data set [2] (setting [3]), the “Peptide crossing the BBB (fluorescence outside blood vessels, brain parenchyma)” value is reported as “crosses the BBB” and the “Peptide delivered to the BBB (fluorescence inside blood brain vessels, integrated density)” value is “reaches the BBB of treated animals”.

For the origin of these results see publication PMC6138628, “Enhanced uptake of gH625 by blood brain barrier compared to liver in vivo: characterization of the mechanism by an in vitro model and implications for delivery” (Scientific Reports, 2018).
